Target: Genome polyprotein (Hepatitis C virus genotype 1b (strain HC-J4) (HCV), UniProt O92972)
Experiment: Inhibition Assay: Inhibition assay using HCV NS5B.

Chain of Genome polyprotein (O92972 2420-3010 limits assumed): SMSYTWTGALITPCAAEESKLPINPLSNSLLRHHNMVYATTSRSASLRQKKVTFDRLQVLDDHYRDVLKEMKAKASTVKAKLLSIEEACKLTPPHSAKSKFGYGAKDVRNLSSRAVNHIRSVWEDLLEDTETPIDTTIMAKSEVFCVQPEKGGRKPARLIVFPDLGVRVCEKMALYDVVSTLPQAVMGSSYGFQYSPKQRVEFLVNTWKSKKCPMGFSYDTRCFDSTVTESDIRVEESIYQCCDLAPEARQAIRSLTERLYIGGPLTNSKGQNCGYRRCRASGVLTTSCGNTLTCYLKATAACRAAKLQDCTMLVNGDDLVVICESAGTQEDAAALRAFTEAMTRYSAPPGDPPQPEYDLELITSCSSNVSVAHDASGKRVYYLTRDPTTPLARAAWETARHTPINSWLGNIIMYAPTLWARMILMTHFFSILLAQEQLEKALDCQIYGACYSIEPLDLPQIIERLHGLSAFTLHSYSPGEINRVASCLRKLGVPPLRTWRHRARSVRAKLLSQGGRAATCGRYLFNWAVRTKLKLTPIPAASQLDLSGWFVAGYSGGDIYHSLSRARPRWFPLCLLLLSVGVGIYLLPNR

Compound: CN1C/C=C\CCNC(=O)Cn2c(-c3ccc(Cl)cc3)c(C3CCCCC3)c3ccc(cc32)C(=O)NS1(=O)=O
- IC50: 170 nM

Source: ChEMBL document CHEMBL3639203, “Macrocyclic indoles as hepatitis C virus inhibitors” (2013)
